pIC50, pKd, pKi: −log10 of the molar value.
Assays:
MDA-MB-231 = assay: Inhibition of cell migration in human MDA-MB-231 cells by scratch wound assay; format: functional
Autotaxin [1] = target: T1, Autotaxin (Homo sapiens, UniProt Q13822); assay: Inhibition of recombinant ATX (unknown origin) assessed as inhibition of hydrolysis of fluoregenic lysoPC analogue FS-3 at 10 uM
Autotaxin [2] = target: T1, Autotaxin; assay: Inhibition of recombinant ATX (unknown origin) assessed as inhibition of hydrolysis of fluoregenic lysoPC analogue FS-3
[3] = target: Lysophosphatidic acid receptor 4 (Homo sapiens, UniProt Q99677); assay: Antagonist activity at human LPA4 receptor expressed in CHO cells assessed as inhibition of LPA-induced Ca2+ mobilization by FURA-2AM dye based fluorescence assay; format: functional, cell-based
[4] = target: T2, Lysophosphatidic acid receptor 3 (Homo sapiens, UniProt Q9UBY5); assay: Antagonist activity at human LPA3 receptor expressed in […] cells assessed as inhibition of LPA-induced Ca2+ mobilization by FURA-2AM dye based fluorescence assay; format: functional, cell-based
T2 sequence (Q9UBY5 whole entry): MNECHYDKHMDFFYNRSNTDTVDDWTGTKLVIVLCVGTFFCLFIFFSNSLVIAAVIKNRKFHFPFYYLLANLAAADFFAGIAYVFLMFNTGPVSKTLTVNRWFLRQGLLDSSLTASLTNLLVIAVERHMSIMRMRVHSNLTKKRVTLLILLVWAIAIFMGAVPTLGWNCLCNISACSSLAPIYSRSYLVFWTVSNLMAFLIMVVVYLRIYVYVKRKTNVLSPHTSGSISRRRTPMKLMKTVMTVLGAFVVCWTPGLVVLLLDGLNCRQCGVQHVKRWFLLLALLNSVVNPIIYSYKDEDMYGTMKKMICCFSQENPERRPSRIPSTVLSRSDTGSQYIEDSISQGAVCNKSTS

[5] = target: Lysophosphatidic acid receptor 2 (Homo sapiens, UniProt Q9HBW0); assay: Antagonist activity at human LPA2 receptor expressed in […] cells assessed as inhibition of LPA-induced Ca2+ mobilization by FURA-2AM dye based fluorescence assay; format: functional, cell-based
[6] = target: Lysophosphatidic acid receptor 1 (Homo sapiens, UniProt Q92633); assay: Antagonist activity at human LPA1 receptor expressed in […] cells assessed as inhibition of LPA-induced Ca2+ mobilization by FURA-2AM dye based fluorescence assay; format: functional, cell-based
[7] = target: Transient receptor potential cation channel subfamily V member 1 (Homo sapiens, UniProt Q8NER1); assay: Activation of TRPV-1 channel (unknown origin)
[8] = Binding affinity to Yersinia YopH
[9] = target: T3, Purine nucleoside phosphorylase (Homo sapiens, UniProt P00491); assay: Inhibition of human erythrocyte PNP
T3 sequence (P00491 whole entry): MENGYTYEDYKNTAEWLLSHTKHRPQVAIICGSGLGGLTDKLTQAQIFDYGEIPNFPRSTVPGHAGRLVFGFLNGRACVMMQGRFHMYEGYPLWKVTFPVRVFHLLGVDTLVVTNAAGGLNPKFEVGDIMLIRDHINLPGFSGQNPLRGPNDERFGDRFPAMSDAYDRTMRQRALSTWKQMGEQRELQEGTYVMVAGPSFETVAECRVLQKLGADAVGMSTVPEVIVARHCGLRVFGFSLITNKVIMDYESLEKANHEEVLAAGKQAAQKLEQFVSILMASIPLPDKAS

Sequence of Lysophosphatidic acid receptor 2 (Q9HBW0 whole entry): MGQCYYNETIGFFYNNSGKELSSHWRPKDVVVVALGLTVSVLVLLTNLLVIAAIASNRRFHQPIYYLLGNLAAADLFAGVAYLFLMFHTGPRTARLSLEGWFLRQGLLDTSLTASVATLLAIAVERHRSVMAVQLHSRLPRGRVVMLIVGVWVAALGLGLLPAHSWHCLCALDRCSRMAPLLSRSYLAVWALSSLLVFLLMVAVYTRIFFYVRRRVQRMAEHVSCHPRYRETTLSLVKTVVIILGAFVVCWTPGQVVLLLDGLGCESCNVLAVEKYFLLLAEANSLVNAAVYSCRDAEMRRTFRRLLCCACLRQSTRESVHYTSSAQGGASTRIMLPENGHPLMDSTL
Sequence of Transient receptor potential cation channel subfamily V member 1 (Q8NER1 whole entry): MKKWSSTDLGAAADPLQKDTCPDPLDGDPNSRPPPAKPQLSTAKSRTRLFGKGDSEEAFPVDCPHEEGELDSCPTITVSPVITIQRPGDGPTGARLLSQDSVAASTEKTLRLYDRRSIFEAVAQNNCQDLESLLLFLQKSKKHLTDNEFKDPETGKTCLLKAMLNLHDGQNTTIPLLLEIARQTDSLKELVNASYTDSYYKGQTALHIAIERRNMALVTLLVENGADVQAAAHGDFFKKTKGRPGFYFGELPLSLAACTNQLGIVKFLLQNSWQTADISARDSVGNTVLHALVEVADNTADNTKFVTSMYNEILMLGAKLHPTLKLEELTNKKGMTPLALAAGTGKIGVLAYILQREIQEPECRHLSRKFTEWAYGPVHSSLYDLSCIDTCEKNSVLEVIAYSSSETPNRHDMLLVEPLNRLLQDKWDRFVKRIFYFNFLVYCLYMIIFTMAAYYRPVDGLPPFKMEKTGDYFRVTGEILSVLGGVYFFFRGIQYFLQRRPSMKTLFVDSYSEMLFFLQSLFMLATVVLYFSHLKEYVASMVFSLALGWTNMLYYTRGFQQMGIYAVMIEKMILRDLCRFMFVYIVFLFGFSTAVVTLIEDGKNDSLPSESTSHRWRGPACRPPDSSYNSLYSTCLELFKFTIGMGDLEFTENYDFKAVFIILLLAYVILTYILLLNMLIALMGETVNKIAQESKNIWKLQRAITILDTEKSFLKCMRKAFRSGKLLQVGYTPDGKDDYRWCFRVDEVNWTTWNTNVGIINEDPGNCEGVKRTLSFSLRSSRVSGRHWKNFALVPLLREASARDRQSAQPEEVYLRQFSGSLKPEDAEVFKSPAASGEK
Sequence of Lysophosphatidic acid receptor 1 (Q92633 whole entry): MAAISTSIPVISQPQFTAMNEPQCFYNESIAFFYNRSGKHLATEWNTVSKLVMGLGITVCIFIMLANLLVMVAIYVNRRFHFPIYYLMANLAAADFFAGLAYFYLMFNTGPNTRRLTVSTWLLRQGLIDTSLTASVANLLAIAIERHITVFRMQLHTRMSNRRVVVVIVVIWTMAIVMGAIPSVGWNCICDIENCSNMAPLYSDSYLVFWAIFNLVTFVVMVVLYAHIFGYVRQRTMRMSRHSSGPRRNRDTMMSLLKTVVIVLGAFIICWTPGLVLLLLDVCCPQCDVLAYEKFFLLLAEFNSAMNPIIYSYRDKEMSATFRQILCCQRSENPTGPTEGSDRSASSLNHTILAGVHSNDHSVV
Sequence of Lysophosphatidic acid receptor 4 (Q99677 whole entry): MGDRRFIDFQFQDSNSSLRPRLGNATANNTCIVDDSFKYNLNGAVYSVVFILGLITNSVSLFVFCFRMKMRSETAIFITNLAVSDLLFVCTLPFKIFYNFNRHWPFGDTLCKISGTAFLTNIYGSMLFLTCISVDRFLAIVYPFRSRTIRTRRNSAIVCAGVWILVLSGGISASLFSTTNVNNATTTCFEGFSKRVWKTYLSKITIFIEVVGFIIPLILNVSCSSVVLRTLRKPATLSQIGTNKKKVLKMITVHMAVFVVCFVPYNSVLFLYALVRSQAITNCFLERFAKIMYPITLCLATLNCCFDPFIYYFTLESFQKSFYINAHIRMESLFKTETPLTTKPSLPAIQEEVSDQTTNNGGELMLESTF

SMILES: CCCCCCCCCCCCCCCC(=O)OC[C@@H](O)C[C@H](Br)P(=O)(O)O
- inhibition (INH) (MDA-MB-231): 50%
- inhibition (Autotaxin [1]): 98%
- pIC50 (Autotaxin [2]): 7.66

SMILES: CCCCCCCCCCCCCCCC(=O)OC[C@@H](O)CC(Br)P(=O)(O)O (mixture of isomers) [listing 1 of 2 here]
- inhibition (Autotaxin [1]): 98%

SMILES: CCCCCCCCCCCCCCCC(=O)OC[C@@H](O)CC(Br)P(=O)(O)O (some centres not stated)
- pKi [3]: 6.77
- pKi [4]: 6.77
- pKi [5]: 6.77
- pKi [6]: 6.77

SMILES: CCCCCCCC/C=C\CCCCCCCC(=O)OC[C@@H](O)COP(=O)(O)O [LYSOPHOSPHATIDIC ACID]
- pKd [7]: 6.12

SMILES: CCN(CC)c1ccc2c(-c3ccc(S(=O)(=O)[O-])cc3S(=O)(=O)NCc3ccc(C(Br)P(=O)(O)O)cc3)c3ccc(=[N+](CC)CC)cc-3oc2c1 (configuration not stated)
- pKi [8]: 3.16

SMILES: CCCCCCCCCCCCCCCC(=O)OC[C@@H](O)CC(Br)P(=O)(O)O (mixture of isomers) [listing 2 of 2 here]
- pKd [7]: 5.96

SMILES: Nc1nc2c(ncn2CCCCC(F)(F)P(=O)(O)O)c(=O)[nH]1
- pKi [9]: 6.76

SMILES: O=P(O)(O)C(Br)c1ccccc1 (configuration not stated)
- pKi [8]: 2.39

SMILES: CCCCCCCC/C=C\CCCCCCCC(=O)OC[C@@H](O)CC(Br)P(=O)(O)O (some centres not stated)
- pKi [3]: 6.77
- pKi [4]: 6.77
- pKi [5]: 6.77
- pKi [6]: 6.77

SMILES: O=C(CCCC[C@H]1SC[C@H]2NC(=O)N[C@H]21)NCc1ccc(C(Br)P(=O)(O)O)cc1 (some centres not stated)
- pKi [8]: 3.13

SMILES: CCCCCCCCCCCCCCCC(=O)OC[C@@H](O)C[C@@H](Br)P(=O)(O)O
- inhibition (INH) (MDA-MB-231): 50%
- inhibition (Autotaxin [1]): 98%
- pIC50 (Autotaxin [2]): 6.78

SMILES: CCN(CC)c1ccc2c(-c3ccc(S(=O)(=O)NCc4ccc(C(Br)P(=O)(O)O)cc4)cc3S(=O)(=O)[O-])c3ccc(=[N+](CC)CC)cc-3oc2c1 (configuration not stated)
- pKi [8]: 3.16
